Several values for one entry are separate records, joined by “and”; a condition that tells them apart may be missing. Equal values may be shown once. Non-standard residues stand in square brackets, D forms with d. Residues, ends and D or L forms follow the SMILES beside them. NMeH = CN[C@@H](Cc1c[nH]cn1)C(=O)O; Gly(N-CH2CH2OH) = O=C(O)CNCCO; NMeL = CN[C@@H](CC(C)C)C(=O)O
Biological target: T1, HCoV-229E spike protein (Human coronavirus 229E, UniProt P15423)
T1 construct: purchased Acrobiosystems SPN-H52H3
T1 sequence (P15423 16-1173): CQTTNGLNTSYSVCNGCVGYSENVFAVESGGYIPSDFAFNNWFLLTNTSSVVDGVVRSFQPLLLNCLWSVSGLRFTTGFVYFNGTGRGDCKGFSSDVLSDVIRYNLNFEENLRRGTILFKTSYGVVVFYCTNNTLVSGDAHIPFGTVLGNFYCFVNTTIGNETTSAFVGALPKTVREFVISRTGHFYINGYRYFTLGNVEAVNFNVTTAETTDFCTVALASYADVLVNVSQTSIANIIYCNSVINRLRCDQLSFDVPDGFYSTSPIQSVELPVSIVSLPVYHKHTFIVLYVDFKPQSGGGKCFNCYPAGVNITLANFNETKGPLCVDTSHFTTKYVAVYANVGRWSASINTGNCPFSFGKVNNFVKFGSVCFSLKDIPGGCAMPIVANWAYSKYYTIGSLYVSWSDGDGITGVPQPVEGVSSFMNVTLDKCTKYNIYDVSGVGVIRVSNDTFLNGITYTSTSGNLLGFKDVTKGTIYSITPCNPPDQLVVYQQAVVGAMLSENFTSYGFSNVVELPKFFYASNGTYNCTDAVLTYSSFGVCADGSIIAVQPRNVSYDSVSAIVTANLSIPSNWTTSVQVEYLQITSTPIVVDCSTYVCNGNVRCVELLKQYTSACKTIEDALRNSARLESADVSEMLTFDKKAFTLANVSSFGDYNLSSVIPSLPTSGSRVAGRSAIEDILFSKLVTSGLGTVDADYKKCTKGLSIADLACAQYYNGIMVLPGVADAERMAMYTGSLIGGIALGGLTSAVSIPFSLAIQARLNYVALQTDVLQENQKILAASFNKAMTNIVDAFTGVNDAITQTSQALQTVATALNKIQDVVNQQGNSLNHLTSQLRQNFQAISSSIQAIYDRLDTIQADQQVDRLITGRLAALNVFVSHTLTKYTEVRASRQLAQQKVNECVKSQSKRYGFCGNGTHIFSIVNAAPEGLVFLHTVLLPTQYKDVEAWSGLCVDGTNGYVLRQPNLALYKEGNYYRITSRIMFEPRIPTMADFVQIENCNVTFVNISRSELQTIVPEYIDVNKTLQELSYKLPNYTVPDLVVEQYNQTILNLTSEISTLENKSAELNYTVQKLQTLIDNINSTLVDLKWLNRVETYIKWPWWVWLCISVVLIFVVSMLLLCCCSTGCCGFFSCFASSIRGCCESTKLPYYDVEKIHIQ
Test: Surface plasmon resonance (SPR) direct binding
Settings: spike immobilized on CM5 chip, HBS-P+ buffer, 25 °C, 1:1 model, koff/kon

SMILES | Kd
CC(=O)N[C@@H](CO)C(=O)N[C@@H](CCCCN)C(=O)N(C)[C@@H](Cc1c[nH]cn1)C(=O)N[C@@H](CO)C(N)=O [Compound 3, SK(N-Me)HS] (Ac-SK[NMeH]S-NH2) | 416 ± 442 nM
CC(=O)N[C@@H](CO)C(=O)N[C@@H](CC(C)C)C(=O)N[C@@H](CC(=O)O)C(=O)N[C@@H](CS)C(N)=O [Compound 1, SLDC] (Ac-SLDC-NH2) | > 50000 nM
CC(=O)N[C@@H](CO)C(=O)N[C@@H](CCCCN)C(=O)N[C@@H](Cc1c[nH]cn1)C(=O)N[C@@H](CO)C(N)=O [Compound 2, SKHS] (Ac-SKHS-NH2) | 41400 ± 870 nM
CC(=O)N[C@@H](CO)C(=O)N[C@@H](CCCCN)C(=O)N[C@@H](Cc1c[nH]cn1)C(=O)N(CCO)CC(N)=O [Compound 6, SKHNhS] (Ac-SKH[Gly(N-CH2CH2OH)]-NH2) | 1510 ± 465 nM
CC(=O)N[C@@H](CO)C(=O)N(C)[C@@H](CC(C)C)C(=O)N[C@@H](CC(=O)O)C(=O)N[C@@H](CS)C(N)=O [Compound 4, S(N-Me)LDC] (Ac-S[NMeL]DC-NH2) | 1150 ± 182 nM

Test system: 229E Coronavirus
Test: not given
Settings: concentration that reduced the cytopathic effect by 50%; virus pre-incubated with compound 1 h at 4 °C, compound present 72 h; MRC-5 cells; mean ± standard error of three experiments

SMILES | EC50
CC(=O)N[C@@H](CO)C(=O)N[C@@H](CCCCN)C(=O)N(C)[C@@H](Cc1c[nH]cn1)C(=O)N[C@@H](CO)C(N)=O [Compound 3, SK(N-Me)HS] (Ac-SK[NMeH]S-NH2) | ~0.031 nM and 0.031 nM
CC(=O)N[C@@H](CO)C(=O)N[C@@H](CC(C)C)C(=O)N[C@@H](CC(=O)O)C(=O)N[C@@H](CS)C(N)=O [Compound 1, SLDC] (Ac-SLDC-NH2) | 50 ± 0.4 nM
CC(=O)N[C@@H](CO)C(=O)N[C@@H](CCCCN)C(=O)N[C@@H](Cc1c[nH]cn1)C(=O)N[C@@H](CO)C(N)=O [Compound 2, SKHS] (Ac-SKHS-NH2) | 500 ± 2 nM

Same assay, conditions: read-out: EC50, Infection Cycle; compound present during adsorption and entire replication cycle (1 h + 72 h)

SMILES | EC50
CC(=O)N[C@@H](CO)C(=O)N[C@@H](CCCCN)C(=O)N(C)[C@@H](Cc1c[nH]cn1)C(=O)N[C@@H](CO)C(N)=O [Compound 3, SK(N-Me)HS] (Ac-SK[NMeH]S-NH2) | 0.043 nM

Biological target: T1, HCoV-229E spike protein
Test: Microscale thermophoresis (MST) direct binding
Settings: NT647-labeled spike protein, PBS, triplicate

SMILES | Kd
CC(=O)N[C@@H](CO)C(=O)N[C@@H](CCCCN)C(=O)N(C)[C@@H](Cc1c[nH]cn1)C(=O)N[C@@H](CO)C(N)=O [Compound 3, SK(N-Me)HS] (Ac-SK[NMeH]S-NH2) | 390 ± 50 nM
CC(=O)N[C@@H](CO)C(=O)N[C@@H](CC(C)C)C(=O)N[C@@H](CC(=O)O)C(=O)N[C@@H](CS)C(N)=O [Compound 1, SLDC] (Ac-SLDC-NH2) | 4920 ± 700 nM
CC(=O)N[C@@H](CO)C(=O)N[C@@H](CCCCN)C(=O)N[C@@H](Cc1c[nH]cn1)C(=O)N[C@@H](CO)C(N)=O [Compound 2, SKHS] (Ac-SKHS-NH2) | 5120 ± 600 nM
CC(=O)N[C@@H](CO)C(=O)N[C@@H](CCCCN)C(=O)N[C@@H](Cc1c[nH]cn1)C(=O)N(CCO)CC(N)=O [Compound 6, SKHNhS] (Ac-SKH[Gly(N-CH2CH2OH)]-NH2) | 11000 ± 800 nM
CC(=O)N[C@@H](CO)C(=O)N(C)[C@@H](CC(C)C)C(=O)N[C@@H](CC(=O)O)C(=O)N[C@@H](CS)C(N)=O [Compound 4, S(N-Me)LDC] (Ac-S[NMeL]DC-NH2) | 2600 ± 1300 nM

Test system: Influenza A H1N1 Virus
Test: not given
Parameters: method as in earlier work
Settings: concentration that reduced the cytopathic effect by 50%; cited from earlier work

SMILES | EC50
CC(=O)N[C@@H](CO)C(=O)N[C@@H](CCCCN)C(=O)N(C)[C@@H](Cc1c[nH]cn1)C(=O)N[C@@H](CO)C(N)=O [Compound 3, SK(N-Me)HS] (Ac-SK[NMeH]S-NH2) | 0.142 ± 0.002 nM
CC(=O)N[C@@H](CO)C(=O)N[C@@H](CCCCN)C(=O)N[C@@H](Cc1c[nH]cn1)C(=O)N(CCO)CC(N)=O [Compound 6, SKHNhS] (Ac-SKH[Gly(N-CH2CH2OH)]-NH2) | 0.5 ± 0.004 nM
CC(=O)N[C@@H](CO)C(=O)N(C)[C@@H](CC(C)C)C(=O)N[C@@H](CC(=O)O)C(=O)N[C@@H](CS)C(N)=O [Compound 4, S(N-Me)LDC] (Ac-S[NMeL]DC-NH2) | 0.085 ± 0.0004 nM

Biological target: T1, HCoV-229E spike protein
Test: Nanoscale differential scanning fluorometry (nanoDSF) thermal shift
Type: binding
Settings: 200 μM compound, 2 μM spike protein, PBS pH 7.4

SMILES | ∆Tm
CC(=O)N[C@@H](CO)C(=O)N[C@@H](CCCCN)C(=O)N(C)[C@@H](Cc1c[nH]cn1)C(=O)N[C@@H](CO)C(N)=O [Compound 3, SK(N-Me)HS] (Ac-SK[NMeH]S-NH2) | 0.3 °C
CC(=O)N[C@@H](CO)C(=O)N[C@@H](CCCCN)C(=O)N[C@@H](Cc1c[nH]cn1)C(=O)N(CCO)CC(N)=O [Compound 6, SKHNhS] (Ac-SKH[Gly(N-CH2CH2OH)]-NH2) | 0.4 °C
CC(=O)N[C@@H](CO)C(=O)N(C)[C@@H](CC(C)C)C(=O)N[C@@H](CC(=O)O)C(=O)N[C@@H](CS)C(N)=O [Compound 4, S(N-Me)LDC] (Ac-S[NMeL]DC-NH2) | 0.1 °C

Same assay, conditions: 200 μM peptide, 2 µM protein, ramp 20-95 °C

SMILES | Tm
CC(=O)N[C@@H](CO)C(=O)N[C@@H](CCCCN)C(=O)N(C)[C@@H](Cc1c[nH]cn1)C(=O)N[C@@H](CO)C(N)=O [Compound 3, SK(N-Me)HS] (Ac-SK[NMeH]S-NH2) | 81.9 °C
CC(=O)N[C@@H](CO)C(=O)N[C@@H](CCCCN)C(=O)N[C@@H](Cc1c[nH]cn1)C(=O)N(CCO)CC(N)=O [Compound 6, SKHNhS] (Ac-SKH[Gly(N-CH2CH2OH)]-NH2) | 82.0 °C
CC(=O)N[C@@H](CO)C(=O)N(C)[C@@H](CC(C)C)C(=O)N[C@@H](CC(=O)O)C(=O)N[C@@H](CS)C(N)=O [Compound 4, S(N-Me)LDC] (Ac-S[NMeL]DC-NH2) | 81.7 °C

Source: PMC12389581, “Inhibition of Human Coronavirus 229E by Lactoferrin-Derived Peptidomimetics” (Pharmaceutics, 2025)
